Experimental findings from ChEMBL document CHEMBL5143746, “SJPYT-195: A Designed Nuclear Receptor Degrader That Functions as a Molecular Glue Degrader of GSPT1” (ACS Med Chem Lett, 2022) are described below.

The structures appear in SMILES notation. Where only a bound is given, the exact number is not on record here.

Series [1] has as its target Protein cereblon/DNA damage-binding protein 1 (Homo sapiens, UniProt Q96SW2). Briefly: Displacement of BODIPY FL thalidomide from 6His-tagged CRBN/DDB1 (unknown origin) expressed in baculovirus infected Sf9 insect cells incubated for 1 min under shaking condition followed by 60 mins incubation under dark condition by TR-FRET assay.
For series [2], the target named is T1, Protein cereblon/Peptidyl-prolyl cis-trans isomerase FKBP1A/Nuclear receptor subfamily 1 group I member 2 (Homo sapiens, UniProt P62942+O75469+Q96SW2, F37V). Briefly: Molecular glue activity at HA-tagged […]/2HA-tagged PXR fused HiBiT-tagged FKBP12 (F36V) mutant (unknown origin) expressed in HepG2 cells assessed as induction of PXR degradation by measuring change in CRBN expression at 0.01 uM measured after 24 hrs by Western blot analysis relative to control. The format is cell-based. Conditions: hepg2, 24 h; call rule not given here.
T1 sequence (O75469 whole entry, stated change not applied, the tested form may be a part): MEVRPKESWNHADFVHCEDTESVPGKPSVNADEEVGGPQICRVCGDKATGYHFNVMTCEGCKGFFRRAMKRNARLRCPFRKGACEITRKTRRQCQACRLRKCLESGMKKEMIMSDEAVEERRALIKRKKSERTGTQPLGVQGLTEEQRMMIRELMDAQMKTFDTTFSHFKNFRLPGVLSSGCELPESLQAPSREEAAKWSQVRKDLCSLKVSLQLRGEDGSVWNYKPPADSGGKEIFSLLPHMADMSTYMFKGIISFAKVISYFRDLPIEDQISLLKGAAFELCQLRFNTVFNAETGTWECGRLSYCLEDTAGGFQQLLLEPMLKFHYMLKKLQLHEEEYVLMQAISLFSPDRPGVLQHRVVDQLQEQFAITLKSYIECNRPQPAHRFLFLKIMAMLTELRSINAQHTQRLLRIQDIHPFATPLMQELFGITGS
T1 sequence (P62942 2-108 F37V limits assumed, stated change not applied): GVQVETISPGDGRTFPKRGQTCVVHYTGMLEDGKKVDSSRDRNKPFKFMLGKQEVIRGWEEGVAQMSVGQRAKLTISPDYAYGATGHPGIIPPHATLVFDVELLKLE
T1 sequence (Q96SW2 whole entry, stated change not applied, the tested form may be a part): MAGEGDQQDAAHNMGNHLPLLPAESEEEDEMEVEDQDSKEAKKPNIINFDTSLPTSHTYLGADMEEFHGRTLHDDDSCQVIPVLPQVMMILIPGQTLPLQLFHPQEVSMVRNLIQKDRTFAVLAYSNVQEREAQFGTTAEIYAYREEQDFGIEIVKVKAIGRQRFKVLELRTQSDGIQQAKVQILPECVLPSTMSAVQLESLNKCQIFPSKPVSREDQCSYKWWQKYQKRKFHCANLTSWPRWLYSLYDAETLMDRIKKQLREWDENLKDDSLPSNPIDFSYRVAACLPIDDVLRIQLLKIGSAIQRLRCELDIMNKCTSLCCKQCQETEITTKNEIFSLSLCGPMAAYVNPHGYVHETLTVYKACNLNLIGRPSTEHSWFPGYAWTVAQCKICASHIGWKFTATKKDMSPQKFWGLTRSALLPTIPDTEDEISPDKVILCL

Series [3] relates to HepG2. The experiment in a line: Binding affinity to 2HA-tagged PXR fused HiBiT-tagged FKBP12 (F36V) mutant (unknown origin) expressed in HepG2 cells assessed as change in FKBP-PXR expression at 1 uM measured after 24 hrs by Western blot analysis relative to control. Particulars: Homo sapiens. Type of series: cell-based.
The target of series [4] is T1, Protein cereblon/Peptidyl-prolyl cis-trans isomerase FKBP1A/Nuclear receptor subfamily 1 group I member 2. Briefly: Molecular glue activity at HA-tagged […]/2HA-tagged PXR fused HiBiT-tagged FKBP12 (F36V) mutant (unknown origin) expressed in HepG2 cells assessed as induction of PXR degradation by measuring change in FKBP-PXR expression at 0.01 uM measured after 24 hrs by Western blot analysis relative to control. Particulars: hepg2, 24 h. The format is cell-based.

Series [5] shares this target. Briefly: Molecular glue activity at HA-tagged […]/2HA-tagged PXR fused HiBiT-tagged FKBP12 (F36V) mutant (unknown origin) expressed in HepG2 cells assessed as induction of PXR degradation by measuring change in CRBN expression at 10 uM measured after 24 hrs by Western blot analysis relative to control. Conditions: hepg2, 24 h. The format is cell-based.
Series [6] deals with HepG2. The experiment in a line: Binding affinity to 2HA-tagged PXR fused HiBiT-tagged FKBP12 (F36V) mutant (unknown origin) expressed in HepG2 cells assessed as change in FKBP-PXR expression at 0.001 uM measured after 24 hrs by Western blot analysis relative to control. Type of series: cell-based. Conditions: Homo sapiens.
Series [7] addresses T1, Protein cereblon/Peptidyl-prolyl cis-trans isomerase FKBP1A/Nuclear receptor subfamily 1 group I member 2. The experiment in a line: Molecular glue activity at HA-tagged […]/2HA-tagged PXR fused HiBiT-tagged FKBP12 (F36V) mutant (unknown origin) expressed in HepG2 cells assessed as induction of PXR degradation by measuring change in FKBP-PXR expression at 10 uM measured after 24 hrs by Western blot analysis relative to control. The format is cell-based. Conditions: hepg2, 24 h.

The target is the same in series [8]. The experiment in a line: Molecular glue activity at HA-tagged […]/2HA-tagged PXR fused HiBiT-tagged FKBP12 (F36V) mutant (unknown origin) expressed in HepG2 cells assessed as induction of PXR degradation by measuring change in CRBN expression at 0.0001 uM measured after 24 hrs by Western blot analysis relative to control. The format is cell-based. Particulars: hepg2, 24 h.

Series [9] has the same target. The experiment in a line: Molecular glue activity at HA-tagged CLR4-CRBN/2HA-tagged PXR fused HiBiT-tagged FKBP12 (F36V) mutant (unknown origin) expressed in HepG2 cells assessed as induction of PXR degradation measured after 24 hrs by Nano-Glo HiBiT assay. The format is cell-based. Conditions: hepg2, 24 h.
Series [10] has the same target. The experiment in a line: Molecular glue activity at HA-tagged […]/2HA-tagged PXR fused HiBiT-tagged FKBP12 (F36V) mutant (unknown origin) expressed in HepG2 cells assessed as induction of PXR degradation by measuring change in FKBP-PXR expression at 1 uM measured after 24 hrs by Western blot analysis relative to control. Particulars: hepg2, 24 h. Type of series: cell-based.

For series [11] the target is unchanged. Briefly: Molecular glue activity at HA-tagged […]/2HA-tagged PXR fused HiBiT-tagged FKBP12 (F36V) mutant (unknown origin) expressed in HepG2 cells assessed as induction of PXR degradation by measuring change in FKBP-PXR expression at 0.001 uM measured after 24 hrs by Western blot analysis relative to control. Conditions: hepg2, 24 h. The format is cell-based.

Series [12] shares this target. The experiment in a line: Molecular glue activity at HA-tagged […]/2HA-tagged PXR fused HiBiT-tagged FKBP12 (F36V) mutant (unknown origin) expressed in HepG2 cells assessed as induction of PXR degradation by measuring change in CRBN expression at 0.001 uM measured after 24 hrs by Western blot analysis relative to control. Type of series: cell-based. Conditions: hepg2, 24 h.

For series [13] the target is unchanged. The experiment in a line: Molecular glue activity at HA-tagged […]/2HA-tagged PXR fused HiBiT-tagged FKBP12 (F36V) mutant (unknown origin) expressed in HepG2 cells assessed as induction of PXR degradation by measuring change in FKBP-PXR expression at 0.1 uM measured after 24 hrs by Western blot analysis relative to control. The format is cell-based. Conditions: hepg2, 24 h.

The target is the same in series [14]. The experiment in a line: Molecular glue activity at HA-tagged […]/2HA-tagged PXR fused HiBiT-tagged FKBP12 (F36V) mutant (unknown origin) expressed in HepG2 cells assessed as induction of PXR degradation by measuring change in CRBN expression at 0.1 uM measured after 24 hrs by Western blot analysis relative to control. The format is cell-based. Conditions: hepg2, 24 h.

For series [15] the target is unchanged. The experiment in a line: Molecular glue activity at HA-tagged […]/2HA-tagged PXR fused HiBiT-tagged FKBP12 (F36V) mutant (unknown origin) expressed in HepG2 cells assessed as induction of PXR degradation by measuring change in FKBP-PXR expression at 0.0001 uM measured after 24 hrs by Western blot analysis relative to control. Conditions: hepg2, 24 h. The format is cell-based.

Series [16] has the same target. Briefly: Molecular glue activity at HA-tagged […]/2HA-tagged PXR fused HiBiT-tagged FKBP12 (F36V) mutant (unknown origin) expressed in HepG2 cells assessed as induction of PXR degradation by measuring change in CRBN expression at 1 uM measured after 24 hrs by Western blot analysis relative to control. Type of series: cell-based. Particulars: hepg2, 24 h.
Series [17] relates to HepG2. The experiment in a line: Binding affinity to 2HA-tagged PXR fused HiBiT-tagged FKBP12 (F36V) mutant (unknown origin) expressed in HepG2 cells assessed as change in FKBP-PXR expression at 0.0001 uM measured after 24 hrs by Western blot analysis relative to control. Conditions: Homo sapiens. Type of series: cell-based.
The test system of series [18] is HepG2. The experiment in a line: Binding affinity to 2HA-tagged PXR fused HiBiT-tagged FKBP12 (F36V) mutant (unknown origin) expressed in HepG2 cells assessed as change in FKBP-PXR expression at 0.1 uM measured after 24 hrs by Western blot analysis relative to control. The format is cell-based. Particulars: Homo sapiens.
The test system of series [19] is HepG2. Briefly: Binding affinity to 2HA-tagged PXR fused HiBiT-tagged FKBP12 (F36V) mutant (unknown origin) expressed in HepG2 cells assessed as change in FKBP-PXR expression at 10 uM measured after 24 hrs by Western blot analysis relative to control. Type of series: cell-based. Particulars: Homo sapiens.
The test system of series [20] is HepG2. Briefly: Binding affinity to 2HA-tagged PXR fused HiBiT-tagged FKBP12 (F36V) mutant (unknown origin) expressed in HepG2 cells assessed as change in FKBP-PXR expression at 0.01 uM measured after 24 hrs by Western blot analysis relative to control. Type of series: cell-based. Conditions: Homo sapiens.

Sequence of Protein cereblon/DNA damage-binding protein 1 (Q96SW2 whole entry, the tested form may be a part): as the sequence (Q96SW2 whole entry, stated change not applied, the tested form may be a part) above
Sequence of Protein cereblon/DNA damage-binding protein 1 (Q16531 whole entry, further chain, the tested form may be a part): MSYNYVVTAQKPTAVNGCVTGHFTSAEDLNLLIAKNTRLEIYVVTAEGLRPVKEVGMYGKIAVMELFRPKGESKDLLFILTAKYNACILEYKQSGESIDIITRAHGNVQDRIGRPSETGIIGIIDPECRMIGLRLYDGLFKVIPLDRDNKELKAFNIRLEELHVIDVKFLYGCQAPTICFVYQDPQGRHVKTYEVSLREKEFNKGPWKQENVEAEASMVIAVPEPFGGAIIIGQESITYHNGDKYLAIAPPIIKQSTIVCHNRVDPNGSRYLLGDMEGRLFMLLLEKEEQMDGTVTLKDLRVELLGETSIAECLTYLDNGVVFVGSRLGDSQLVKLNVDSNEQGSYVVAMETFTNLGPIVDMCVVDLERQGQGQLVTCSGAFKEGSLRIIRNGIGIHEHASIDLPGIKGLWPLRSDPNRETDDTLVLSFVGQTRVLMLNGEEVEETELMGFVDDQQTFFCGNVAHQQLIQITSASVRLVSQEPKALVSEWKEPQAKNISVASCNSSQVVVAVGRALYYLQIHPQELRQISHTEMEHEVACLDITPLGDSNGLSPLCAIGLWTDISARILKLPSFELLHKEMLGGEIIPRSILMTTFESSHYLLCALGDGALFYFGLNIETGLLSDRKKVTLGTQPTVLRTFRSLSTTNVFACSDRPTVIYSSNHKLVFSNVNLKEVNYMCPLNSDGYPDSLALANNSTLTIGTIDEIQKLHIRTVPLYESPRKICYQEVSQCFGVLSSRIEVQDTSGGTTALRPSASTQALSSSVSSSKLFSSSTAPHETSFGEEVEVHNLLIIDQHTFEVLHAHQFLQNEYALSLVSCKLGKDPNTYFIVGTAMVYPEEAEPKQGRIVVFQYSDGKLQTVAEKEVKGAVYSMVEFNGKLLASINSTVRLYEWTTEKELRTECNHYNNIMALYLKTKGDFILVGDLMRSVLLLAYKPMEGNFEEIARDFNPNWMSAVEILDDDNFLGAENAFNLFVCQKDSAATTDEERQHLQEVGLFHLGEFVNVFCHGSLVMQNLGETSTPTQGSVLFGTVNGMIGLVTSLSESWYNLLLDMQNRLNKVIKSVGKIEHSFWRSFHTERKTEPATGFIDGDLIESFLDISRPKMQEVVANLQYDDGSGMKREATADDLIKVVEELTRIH

As to `CC(=O)Nc1cc(Oc2cccc3c2C(=O)N(C2CCC(=O)NC2=O)C3=O)cc(C(C)(C)C)c1` (stereo not given), in [1], a half-maximal effect (EC50) was put at 11 nM.

Compound `COc1ccc(OC)c(-n2nnc(S(=O)(=O)c3ccc(C(C)(C)C)cc3)c2C)c1` displayed a half-maximal effective concentration (EC50) in series [1] above 3000 nM.

`COc1ccc(OC)c(-n2nnc(C(=O)Nc3cc(NC(=O)Nc4cccc5c4C(=O)N(C4CCC(=O)NC4=O)C5=O)cc(C(C)(C)C)c3)c2C)c1` (stereo not given) gave a 50% effective concentration (EC50) in series [1] of 410 nM.

As to `COc1ccc(OC)c(-n2nnc(C(=O)Nc3cc(NCCNc4cccc5c4C(=O)N(C4CCC(=O)NC4=O)C5=O)cc(C(C)(C)C)c3)c2C)c1` (stereo not given), the midpoint of the response in series [1], the EC50, lay at 24 nM.

With `CC(C)(C)c1cc(N)cc(Oc2cccc3c2C(=O)N(C2CCC(=O)NC2=O)C3=O)c1` (stereo not given), the EC50 in series [1] was found to be 14 nM.

Regarding `CC[C@H](C(=O)N1CCCC[C@H]1C(=O)O[C@H](CCc1ccc(OC)c(OC)c1)c1ccccc1OCC(=O)NCCCCCCOc1cccc2c1C(=O)N(C1CCC(=O)NC1=O)C2=O)c1cc(OC)c(OC)c(OC)c1` (stereo not given in full), the “fold change (FC)” value in series [2] was 1.1; in the series with HepG2 [3], 0.9; in series [4], 0.5; in series [5], 3.6; with HepG2 [6], 1.3; in [7] it was 1.4. The “fold change (FC)” value stood at 0.9 in series [8]; 0.8 in series [10]; 0.7 in [11]; 0.9 in series [12]; 0.5 in series [13]; 1.3 in series [14]. For the same compound, the “fold change (FC)” value is 0.8 in series [15]; 2.2 in series [16]; 1.1 with HepG2 [17]; 1.1 in the series with HepG2 [18]; 1 in the series with HepG2 [19]; 1.2 in the series on HepG2 [20]. Further, in [9], the result was Active.

For the compound `COc1ccc(OC)c(-n2nnc(C(=O)Nc3cc(OC(=O)CNc4cccc5c4C(=O)N(C4CCC(=O)NC4=O)C5=O)cc(C(C)(C)C)c3)c2C)c1` (stereo not given), a half-maximal effect in series [1] (EC50) was put at 17 nM.
